Literature values in patent publication US8273685B2, “Agrochemical composition” (Nippon Soda Co., Ltd., priority 2006, dated 2012).

Details: 1-octanol/water

Structure (SMILES) | Log P
Cc1c(F)c(F)c(COC(=O)[C@@H]2[C@H](/C=C(\Cl)C(F)(F)F)C2(C)C)c(F)c1F (racemic) [Tefluthrin, 2,3,5,6-tetrafluoro-4-methylbenzyl (1RS,3RS)-3-[(Z)-2-chloro-3,3,3-trifluoroprop-1-enyl]-2,2-dimethylcyclopropanecarboxylat] | 6.5
O=C(NC(=O)c1c(F)cccc1F)Nc1ccc(Cl)c(Oc2ncc(C(F)(F)F)cc2Cl)c1 [Fluazuron, 1-[4-chloro-3-(3-chloro-5-trifluoromethyl-2-pyridyloxy)phenyl]-3-(2,6-difluorobenzoyl)urea] | 5.1
CCN(Cc1c(F)cccc1Cl)c1c([N+](=O)[O-])cc(C(F)(F)F)cc1[N+](=O)[O-] [Flumetralin, N-(2-chloro-6-fluorobenzyl)-N-ethyl-alpha,alpha,alpha-trifluoro-2,6-dinitro-p-toluidine] | > 3
O=C(NC(=O)c1c(F)cccc1F)Nc1cc(Cl)c(OC(F)(F)C(F)F)c(Cl)c1 [Hexaflumuron, 1-[3,5-dichloro-4-(1,1,2,2-tetrafluoroethoxy)phenyl]-3-(2,6-difluorobenzoyl)urea] | 4.68
COC(=O)c1c(C(F)F)nc(C(F)(F)F)c(C2=NCCS2)c1CC(C)C [Thiazopyr, methyl 2-difluoromethyl-5-(4,5-dihydro-1,3-triazol-2-yl)-4-isobutyl-6-trifluoromethylnicotinate] | 3.89
